Laboratory results reported in paper PMC9424906 (Frontiers in Pharmacology, 2022).

Key:
[1] = system: EpiAirway human tracheobronchial epithelial tissues; details: EpiAirway 3D HAE tissue model
[2] = system: mild to moderate COVID-19 patients at risk of progression to severe disease; parameters: method as in Gottlieb et al., 2021; details: early 3-day course, ref Gottlieb et al., 2021; cited from earlier work
[3] = system: SARS-CoV-2 (2019-nCoV/USA-WAl/2020); format: cell-based; details: EpiAirway 3D HAE tissue model, 24 h
[4] = system: hospitalized COVID-19 patients; parameters: method as in Beigel et al., 2020a; details: treatment group, ref Beigel et al., 2020a; cited from earlier work
[5] = system: SARS-CoV-2 (USA_WA1/2020); assay: SARS-CoV-2 cytopathic effect (CPE) assay in Vero E6 cells; format: cell-based; details: Severe acute respiratory syndrome coronavirus 2, Vero C1008, 72 h, read-out: EC50, inhibition of SARS-CoV-2 CPE
MDR1 = assay: in vitro; details: dog, MDCK-MDR1, pH 7.4
[6] = Bidirectional transport in Caco-2 monolayers; details: human, Caco-2, pH 7.4
ENT2 = details: cited from earlier work
ENT1 = details: cited from earlier work
[7] = system: mild to moderate COVID-19 patients at high risk of progression to severe disease; parameters: method as in https://www.fda.gov/media/154472/download; details: ref https://www.fda.gov/media/154472/download; cited from earlier work
BCRP = molecular target: T1, BCRP (Homo sapiens, UniProt Q9UNQ0); assay: Bidirectional transport in MDCK-BCRP monolayers; format: in vitro ADME; details: dog, pH 7.4; MDCK-BCRP cells; read-out: Efflux ratio of positive control
T1 construct: host or cells: MDCK (BCRP-MDCK)
T1 sequence (Q9UNQ0 1-655): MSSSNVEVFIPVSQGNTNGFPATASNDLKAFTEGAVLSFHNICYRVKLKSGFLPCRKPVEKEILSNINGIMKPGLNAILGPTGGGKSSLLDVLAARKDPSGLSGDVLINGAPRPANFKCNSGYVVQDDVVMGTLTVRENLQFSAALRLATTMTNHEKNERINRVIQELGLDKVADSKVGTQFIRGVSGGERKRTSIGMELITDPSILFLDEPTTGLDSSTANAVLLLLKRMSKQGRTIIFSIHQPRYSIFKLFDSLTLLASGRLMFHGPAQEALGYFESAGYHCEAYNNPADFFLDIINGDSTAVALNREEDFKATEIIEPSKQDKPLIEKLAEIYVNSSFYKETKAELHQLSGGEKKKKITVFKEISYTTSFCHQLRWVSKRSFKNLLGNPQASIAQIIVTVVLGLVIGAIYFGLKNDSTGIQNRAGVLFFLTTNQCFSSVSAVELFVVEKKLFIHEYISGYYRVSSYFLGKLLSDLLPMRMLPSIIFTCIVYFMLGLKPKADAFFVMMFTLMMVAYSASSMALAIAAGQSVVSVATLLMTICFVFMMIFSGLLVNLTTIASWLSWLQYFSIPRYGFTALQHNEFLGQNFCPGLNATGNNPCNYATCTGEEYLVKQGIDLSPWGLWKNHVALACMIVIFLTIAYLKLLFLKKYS
Experimental: Caco-2 (American Type Culture Collection), MDR1-MDCK (NIH), and BCRP-MDCK (transfected by Absorption Systems) cell monolayers were grown to confluence on collagen-coated, microporous membranes in 12-well assay plates. Caco-2 cells were cultured for 27 days, MDCK-MDR1 and MDCK-BCRP cells were cultured for 8 days prior to experiments. […] The experiment was carried out in Hanks’ balanced salt solution (HBSS) containing 10 mM HEPES and 15 mM glucose at pH 7.4. HBSS in the receiver chamber also contained 1% bovine serum albumin. Cells were first pre-incubated for 0.5 h in HBSS with or without the specific inhibitor (1 µM valspodar or 0.5 µM Ko143 for MDR1 and BCRP, respectively). […] Cell monolayers were dosed on the apical side (A to B) or basolateral side (B to A) and incubated at 37°C with 5% CO2 in a humidified incubator. Samples were taken from the donor and receiver chambers at 2 h. Each experiment was performed in duplicate. All samples were assayed by LC-MS/MS. The apparent permeability (Papp) and percent recovery were calculated as described previously ([Katoh et al., 2006]; [Xia et al., 2006]; [Li et al., 2008]).

CCC(CC)COC(=O)[C@H](C)N[P@](=O)(OC[C@H]1O[C@@](C#N)(c2ccc3c(N)ncnn23)[C@H](O)[C@@H]1O)Oc1ccccc1 [remdesivir]
Cytotoxicity [1]: did not exhibit any cytotoxicity | Reduction of progression to hospitalization or death [2]: 87% | Potency on viral titer (TCID50) at 24 h [3]: lower potency than EIDD-2801 | Reduction of time to recovery [4]: 33% | EC50 [5]: 7.43 µM

C[C@H]1O[C@@H](O[C@H]2[C@@H](O)C[C@H](O[C@H]3[C@@H](O)C[C@H](O[C@H]4CC[C@@]5(C)[C@H](CC[C@@H]6[C@@H]5C[C@@H](O)[C@]5(C)[C@@H](C7=CC(=O)OC7)CC[C@]65O)C4)O[C@@H]3C)O[C@@H]2C)C[C@H](O)[C@@H]1O [digoxin, reference compound]
efflux ratio at 2 h (MDR1): 110 | efflux ratio at 2 h [6]: 27

CC(C)C(=O)OC[C@H]1O[C@@H](n2ccc(NO)nc2=O)[C@H](O)[C@@H]1O [EIDD-2801]
Inhibitor of ENT2 (ENT2): inhibitors | Inhibitor of ENT1 (ENT1): inhibitors | Reduction of progression to hospitalization of death compared to placebo [7]: 30%

Nc1nc(Cl)nc2c1ncn2[C@H]1C[C@H](O)[C@@H](CO)O1 [cladribine, reference compound]
efflux ratio at 2 h (BCRP): 153 | efflux ratio at 2 h [6]: 26

O=c1nc(NO)ccn1[C@@H]1O[C@H](CO)[C@@H](O)[C@H]1O [EIDD-1931, N-hydroxycytidine]
Inhibitor of ENT2 (ENT2): inhibitors | Inhibitor of ENT1 (ENT1): inhibitors
